Assay results as given in patent publication US20250215029A1 (Recludix Pharma, Inc., priority 2022, published 2025).
Like-named read-outs stand apart in the source and are kept apart here.

What was measured:
pY705-STAT3 in PBMC = target: T1, pY705-STAT3 in PBMC (Homo sapiens, UniProt P40763); assay: MSD-pSTAT-PBMC Assay (pSTAT3, IL-6 stimulated); format: cell-based; conditions: PBMC, compound 3 hrs, then 10 ng/mL IL-6 for 10 min; Table 1114; read-out: pSTAT3
T1 construct: Cryopreserved Peripheral Blood Mononuclear Cells (PBMC) are from AllCells; host or cells: cryopreserved PBMC
T1 sequence (P40763 whole entry): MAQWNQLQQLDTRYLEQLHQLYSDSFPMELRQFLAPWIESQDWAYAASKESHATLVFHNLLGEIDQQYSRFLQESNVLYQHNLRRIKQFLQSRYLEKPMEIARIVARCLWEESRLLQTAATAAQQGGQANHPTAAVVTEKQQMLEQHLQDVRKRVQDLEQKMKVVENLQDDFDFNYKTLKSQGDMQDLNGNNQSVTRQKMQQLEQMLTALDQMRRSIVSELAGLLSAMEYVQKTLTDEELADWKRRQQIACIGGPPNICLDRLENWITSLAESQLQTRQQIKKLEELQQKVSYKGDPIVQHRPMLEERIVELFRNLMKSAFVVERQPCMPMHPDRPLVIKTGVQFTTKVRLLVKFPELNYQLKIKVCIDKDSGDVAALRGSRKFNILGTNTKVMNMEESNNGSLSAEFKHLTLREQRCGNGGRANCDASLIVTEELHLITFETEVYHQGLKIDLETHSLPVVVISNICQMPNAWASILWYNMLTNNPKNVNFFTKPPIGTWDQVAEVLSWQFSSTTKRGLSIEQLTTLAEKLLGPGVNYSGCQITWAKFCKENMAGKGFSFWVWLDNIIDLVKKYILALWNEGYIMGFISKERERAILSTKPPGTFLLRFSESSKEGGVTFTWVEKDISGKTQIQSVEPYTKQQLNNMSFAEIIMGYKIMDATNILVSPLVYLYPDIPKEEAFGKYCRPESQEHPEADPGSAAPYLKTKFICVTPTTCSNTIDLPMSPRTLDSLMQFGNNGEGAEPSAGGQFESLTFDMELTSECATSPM
Outline: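 Thawed human PBMC rested overnight in IMDM/10% FBS, then got compound for 3 hrs before a 10 min cytokine pulse: 1 ng/mL IL-4 for pSTAT6, 10 ng/mL IL-6 for pSTAT3. Lysates went to MSD sandwich capture on total STAT6 or STAT3 with phospho-specific detection. IC50 came from background-subtracted, DMSO-normalized signal.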

pY641-STAT6 in PBMC = target: T2, pY641-STAT6 in PBMC (Homo sapiens, UniProt P42226); assay: MSD-pSTAT-PBMC Assay (pSTAT6, IL-4 stimulated); format: cell-based; conditions: compound 3 hrs, then 1 ng/mL IL-4 for 10 min, Table 1114
T2 construct: Cryopreserved Peripheral Blood Mononuclear Cells (PBMC) are from AllCells; host or cells: cryopreserved PBMC
T2 sequence (P42226 1-847): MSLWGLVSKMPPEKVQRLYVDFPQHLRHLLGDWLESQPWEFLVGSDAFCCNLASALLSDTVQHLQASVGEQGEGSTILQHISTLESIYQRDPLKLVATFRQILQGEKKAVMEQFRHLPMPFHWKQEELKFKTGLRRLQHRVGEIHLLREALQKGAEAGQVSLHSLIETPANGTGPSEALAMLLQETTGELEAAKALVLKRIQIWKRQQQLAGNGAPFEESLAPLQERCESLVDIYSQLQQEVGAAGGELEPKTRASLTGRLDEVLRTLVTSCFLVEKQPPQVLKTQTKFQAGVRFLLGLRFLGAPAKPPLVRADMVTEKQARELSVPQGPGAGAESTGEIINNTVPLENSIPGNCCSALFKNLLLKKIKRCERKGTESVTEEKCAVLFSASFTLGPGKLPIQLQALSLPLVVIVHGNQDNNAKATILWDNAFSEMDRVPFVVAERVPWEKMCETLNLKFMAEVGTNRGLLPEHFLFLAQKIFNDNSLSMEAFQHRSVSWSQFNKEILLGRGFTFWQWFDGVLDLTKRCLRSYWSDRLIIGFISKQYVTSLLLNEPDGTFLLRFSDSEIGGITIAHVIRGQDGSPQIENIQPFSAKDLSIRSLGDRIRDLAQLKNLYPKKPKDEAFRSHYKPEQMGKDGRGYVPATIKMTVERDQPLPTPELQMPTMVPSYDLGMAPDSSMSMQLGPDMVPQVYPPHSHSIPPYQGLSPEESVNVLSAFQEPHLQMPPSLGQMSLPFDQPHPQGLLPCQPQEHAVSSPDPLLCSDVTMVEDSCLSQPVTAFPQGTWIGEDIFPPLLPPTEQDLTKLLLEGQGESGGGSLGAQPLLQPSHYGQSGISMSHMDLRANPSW
Outline: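 MSD electrochemiluminescence read-out: total STAT captured, probed with anti-pY641-STAT6 or anti-pY705-STAT3. Human PBMC, 3 h compound pretreatment, 10 min stimulation (IL-4 1 ng/mL or IL-6 10 ng/mL). Unstimulated signal subtracted, DMSO-normalized, variable-slope IC50.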

IC50 (pY705-STAT3 in PBMC)	IC50 (pY641-STAT6 in PBMC; PBMC, read-out: pSTAT6)	Structure (SMILES)	IC50 (pY641-STAT6 in PBMC; pSTAT6, PBMC)
1000 to 3000 nM	100 to 1000 nM	CC(C)(C)C(=O)OCOP(=O)(Cc1ccc2sc(C(=O)N[C@H]3CCCC[C@H]4CC[C@@H](C(=O)N5C[C@@H](C#N)[C@H](c6ccccc6)C5)N4C3=O)cc2c1)OCOC(=O)C(C)(C)C (single isomer, unassigned) [Compound 144, ((((2-(((3S,6S,10aS)-3-((3S,4R or 3R,4S)-3-cyano-4-phenylpyrrolidine-1-carbonyl)-5-oxodecahydro-pyrrolo[1,2-a]azocin-6-yl)carbamoyl)benzo[b]thiophen-5-yl)methyl)phosphoryl)bis (oxy))bis (methylene) bis(2,2-dimethylpropanaote)]	–
> 3000 nM	100 to 1000 nM	CC(C)OC(=O)OCOP(=O)(Cc1ccc2sc(C(=O)N[C@H]3CCCC[C@H]4CC[C@@H](C(=O)N5C[C@@H](C#N)[C@H](c6ccccc6)C5)N4C3=O)cc2c1)OCOC(=O)OC(C)C (single isomer, unassigned) [Compound 148, ((((2-(((3S,6S,10aS)-3-((3S,4R or 3R,4S)-3-cyano-4-phenylpyrrolidine-1-carbonyl)-5-oxodecahydro-pyrrolo[1,2-a]azocin-6-yl)carbamoyl)benzo[b]thiophen-5-yl)methyl)phosphoryl)bis(oxy))bis(methylene) diisopropyl bis(carbonate)]	–
> 3000 nM	> 3000 nM	CC(C)(C)C(=O)SCCOP(=O)(Cc1ccc2sc(C(=O)N[C@H]3CCCC[C@H]4CC[C@@H](C(=O)N5C[C@@H](C#N)[C@H](c6ccccc6)C5)N4C3=O)cc2c1)OCCSC(=O)C(C)(C)C (single isomer, unassigned) [Compound 149, S,S′-(((((2-(((3S,6S,10aS)-3-((3S,4R or 3R,4S)-3-cyano-4-phenylpyrrolidine-1-carbonyl)-5-oxodecahydro-pyrrolo[1,2-a]azocin-6-yl)carbamoyl)benzo[b]thiophen-5-yl)methyl)phosphoryl)bis (oxy))bis(ethane-2,1-diyl))bis(2,2-dimethyl-propanethioate)]	–
1000 to 3000 nM	100 to 1000 nM	CCCC(=O)SCCOP(=O)(OCCSC(=O)CCC)C(F)(F)c1ccc2sc(C(=O)N[C@H]3CCCC[C@H]4CC[C@@H](C(=O)N5C[C@@H](C#N)[C@H](c6ccccc6)C5)N4C3=O)cc2c1 (single isomer, unassigned) [Compound 152, S,S′-(((((2-(((3S,6S,10aS)-3-((3S,4R or 3R,4S)-3-cyano-4-phenylpyrrolidine-1-carbonyl)-5-oxodecahydro-pyrrolo[1,2-a]azocin-6-yl)carbamoyl)benzo[b]thiophen-5-yl)difluoromethyl)phosphoryl)bis(oxy))bis(ethane-2,1-diyl)) dibutanethioate]	–
> 3000 nM	> 3000 nM	CC(C)CC(=O)SCCCCOP(=O)(OCCCCSC(=O)CC(C)C)C(F)(F)c1ccc2sc(C(=O)N[C@H]3CCCC[C@H]4CC[C@@H](C(=O)N5CC(C#N)C(c6ccccc6)C5)N4C3=O)cc2c1 (single isomer, unassigned) [Compound 153, S,S′-(((((2-(((3S,6S,10aS)-3-((3S,4R or 3R,4S)-3-cyano-4-phenylpyrrolidine-1-carbonyl)-5-oxodecahydro-pyrrolo[1,2-a]azocin-6-yl)carbamoyl)benzo[b]thiophen-5-yl)difluoromethyl)phosphoryl)bis (oxy))bis(butane-4,1-diyl)) bis(3-methylbutane thioate)]	–
100 to 1000 nM	100 to 1000 nM	CC(C)CC(=O)SCCOP(=O)(OCCSC(=O)CC(C)C)C(F)(F)c1ccc2sc(C(=O)N[C@H]3CCCC[C@H]4CC[C@@H](C(=O)N5C[C@@H](C#N)[C@H](c6cc[nH]c(=O)c6)C5)N4C3=O)cc2c1 (single isomer, unassigned) [Compound 154, S,S′-(((((2-(((3S,6S,10aS)-3-((3S,4R or 3R,4S)-3-cyano-4-(2-oxo-1,2-dihydropyridin-4-yl)pyrrolidine-1-carbonyl)-5-oxodecahydro-pyrrolo[1,2-a]azocin-6-yl)carbamoyl)benzo [b]thiophen-5-yl)difluoromethyl)phosphoryl)bis (oxy))bis(ethane-2,1-diyl)) bis(3-methylbutane thioate)]	–
100 to 1000 nM	< 100 nM	CC(C)CC(=O)SCCOP(=O)(OCCSC(=O)CC(C)C)C(F)(F)c1ccc2ccc(C(=O)N[C@H]3CCCC[C@H]4CC[C@@H](C(=O)N5C[C@H](c6cc[nH]c(=O)c6)[C@@H](C#N)C5)N4C3=O)cc2c1 (single isomer, unassigned) [Compound 155, S,S′-(((((7-(((3S,6S,10aS)-3-((3R,4S or 3S,4R)-3-cyano-4-(2-oxo-1,2-dihydropyridin-4-yl)pyrrolidine-1-carbonyl)-5-oxodecahydro-pyrrolo[1,2-a]azocin-6-yl)carbamoyl)naphthalen-2-yl)difluoromethyl)phosphoryl)bis(oxy))bis(ethane-2,1-diyl)) bis(3-methylbutane thioate)]	–
100 to 1000 nM	< 100 nM	CC(C)C(=O)SCCOP(=O)(OCCSC(=O)C(C)C)C(F)(F)c1ccc2sc(C(=O)N[C@H]3CCCCC4CC[C@@H](C(=O)N5C[C@H](c6ccccc6)[C@@H](C#N)C5)N4C3=O)cc2c1 (single isomer, unassigned) [Compound 156, S,S′-(((((2-(((3S,6S,10aS)-3-((3S,4R or 3R,4S)-3-cyano-4-phenylpyrrolidine-1-carbonyl)-5-oxodecahydro-pyrrolo[1,2-a]azocin-6-yl)carbamoyl)benzo[b]thiophen-5-yl)difluoromethyl)phosphoryl)bis(oxy))bis(ethane-2,1-diyl)) bis(2-methylpropane-thioate)]	–
> 3000 nM	> 3000 nM	CC(C)(C(=O)SCCOP(=O)(OCCSC(=O)C(C)(C)C(F)(F)F)C(F)(F)c1ccc2sc(C(=O)N[C@H]3CCCC[C@H]4CC[C@@H](C(=O)N5C[C@@H](C#N)[C@H](c6ccccc6)C5)N4C3=O)cc2c1)C(F)(F)F (single isomer, unassigned) [Compound 159, S,S′-(((((2-(((3S,6S,10aS)-3-((3S,4R or 3R,4S)-3-cyano-4-phenylpyrrolidine-1-carbonyl)-5-oxodecahydro-pyrrolo[1,2-a]azocin-6-yl)carbamoyl)benzo[b]thiophen-5-yl)difluoromethyl)phosphoryl)bis(oxy))bis(ethane-2,1-diyl)) bis(3,3,3-trifluoro-2,2-dimethylpropane-thioate)]	–

Structure (SMILES)	IC50 (pY705-STAT3 in PBMC)	IC50 (pY641-STAT6 in PBMC; PBMC, read-out: pSTAT6)	IC50 (pY641-STAT6 in PBMC; pSTAT6, PBMC)
CCCC(=O)SCCOP(=O)(Oc1cccc(C#N)c1)C(F)(F)c1ccc2sc(C(=O)N[C@H]3CCCC[C@H]4CC[C@@H](C(=O)N5C[C@@H](C#N)[C@H](c6ccccc6)C5)N4C3=O)cc2c1 (single isomer, unassigned) [Compound 138, S-(2-((((2-(((3S,6S,10aS)-3-((3S,4R or 3R,4S)-3-cyano-4-phenylpyrrolidine-1-carbonyl)-5-oxodecahydro-pyrrolo[1,2-a]azocin-6-yl)carbamoyl)benzo[b]thiophen-5-yl)difluoromethyl) (3-cyanophenoxy)phosphoryl)oxy)ethyl)butane-thioate]	> 3000 nM	–	100 to 1000 nM
CCCC(=O)SCCOP(=O)(Oc1cccnc1)C(F)(F)c1ccc2sc(C(=O)N[C@H]3CCCC[C@H]4CC[C@@H](C(=O)N5C[C@@H](C#N)[C@H](c6ccccc6)C5)N4C3=O)cc2c1 (single isomer, unassigned) [Compound 139, S-(2-((((2-(((3S,6S,10aS)-3-((3S,4R or 3R,4S)-3-cyano-4-phenylpyrrolidine-1-carbonyl)-5-oxodecahydro-pyrrolo[1,2-a]azocin-6-yl)carbamoyl)benzo[b]thiophen-5-yl)difluoromethyl) (pyridin-3-yloxy)phosphoryl)oxy)ethyl) butanethioate]	100 to 1000 nM	–	< 100 nM
